Patent EP3741379A1, “COSMETIC COMPOSITION COMPRISING AZADIRACHTA INDICA LEAF EXTRACT” (HONEST CO.,LTD., priority 2019, dated 2020)

Tests used:
[1] = Hyaluronic acid + iron 10 ppm; sample at 0.2%
From the text: When hyaluronic acid is degraded by heavy metals, the viscosity of the solution decreases, so the lower the viscosity, the greater the degradation of hyaluronic acid.

TRP-1 mRNA = TRP-1 mRNA expression through real-time PCR in α-MSH-treated B16F10; type: cell-based, mouse; conditions: at 100 µg/mL
Experimental: As cell lines, RAW 264.7, B16F10 and HacaT cells were aliquoted at 3 x 10^5 cells/well to a 6-well plate and cultured in a 5% CO2 incubator at 37°C for 24 hr. Then, the culture medium was replaced with serum-free DMEM, after which, in order to induce cell inflammation, whitening and wrinkle reduction, RAW 264.7 and B16F10 were treated with lipopolysaccharide (LPS) and alpha-melanocyte-stimulating hormone (α-MSH), respectively, at 1 ppm/well, and the cells were treated with each sample solution at different concentrations and then cultured in a 5% CO2 incubator at 37°C for 24 hr. As for HacaT cells, all experimental groups except the untreated group were washed once with PBS, added with PBS, and irradiated with UV-B (300 mJ/cm^2). After irradiation, the cells were treated with the sample solution at different concentrations and cultured for 24 hr to 48 hr. […] Thereafter, RNA was quantified using absorbance, and cDNA was then synthesized using a TProfessional basic thermocycler instrument. Thereafter, 40 PCR cycles of 95°C for 10 sec, 60°C for 15 sec, and 72°C for 20 sec were performed using Power SYBR Green PCR Master Mix reagents, primers and cDNA and using a Step One real-time PCR system, and quantitative analysis was conducted using an analysis program.
The inhibition rate of TRP-1 mRNA expression by AIE was determined through real-time PCR.

## O=C([O-])CN(CCN(CC(=O)O)CC(=O)O)CC(=O)[O-].[Na+].[Na+] [EDTA-2Na]
[1]
  Viscosity: 7,800 cp

## OC[C@H]1O[C@@H](Oc2ccc(O)cc2)[C@H](O)[C@@H](O)[C@@H]1O [arbutin]
TRP-1 mRNA
  inhibition of TRP-1 mRNA expression: 14.86%
